Laboratory results from US7759345B2, “Antitumoral derivatives of ET-743” (priority 2001, dated 2010).

Assays:
K-562 = assay: Inhibition of cells growth by colorimetric assay (SRB), K-562; format: cell-based; conditions: SRB, 48 hours exposure
Summary of the method: (§1)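 5×10^3 cells/well; 18 h attach; compound 10–10^−8 μg/ml in DMSO/EtOH/PBS (0.5:0.5:99), 48 h, 37 °C, 5% CO2; cold 50% TCA fix 60 min 4 °C; 0.4% SRB 10 min RT; Tris solubilization; OD 490 nm; triplicates.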

A-549 = assay: Inhibition of cells growth by colorimetric assay (SRB), A-549; format: cell-based; conditions: SRB, 48 hours exposure
Summary of the method: as §1

SK-MEL-28 = assay: Inhibition of cells growth by colorimetric assay (SRB), SK-MEL-28; format: cell-based; conditions: SRB, 48 hours exposure
Summary of the method: as §1

HT-29 = assay: Inhibition of cells growth by colorimetric assay (SRB), HT-29; format: cell-based; conditions: SRB, 48 hours exposure
Summary of the method: as §1

LoVo = assay: Inhibition of cells growth by colorimetric assay (SRB), LoVo; format: cell-based; conditions: SRB, 48 hours exposure
Summary of the method: as §1

LoVo-Dox = assay: Inhibition of cells growth by colorimetric assay (SRB), LoVo-Dox; format: cell-based; conditions: SRB, 48 hours exposure
Summary of the method: as §1

DU-145 = assay: Inhibition of cells growth by colorimetric assay (SRB), DU-145; format: cell-based; conditions: SRB, 48 hours exposure
Summary of the method: as §1

LNCaP = assay: Inhibition of cells growth by colorimetric assay (SRB), LNCaP; format: cell-based; conditions: SRB, 48 hours exposure
Summary of the method: as §1

SK-BR-3 = assay: Inhibition of cells growth by colorimetric assay (SRB), SK-BR-3; format: cell-based; conditions: SRB, 48 hours exposure
Summary of the method: as §1

IGROV-1 = assay: Inhibition of cells growth by colorimetric assay (SRB), IGROV-1; format: cell-based; conditions: SRB, 48 hours exposure
Summary of the method: as §1

IGROV-ET = assay: Inhibition of cells growth by colorimetric assay (SRB), IGROV-ET; format: cell-based; conditions: SRB, 48 hours exposure
Summary of the method: as §1

SK-OV-3 = assay: Inhibition of cells growth by colorimetric assay (SRB), SK-OV-3; format: cell-based; conditions: SRB, 48 hours exposure
Summary of the method: as §1

PANC-1 = assay: Inhibition of cells growth by colorimetric assay (SRB), PANC-1; format: cell-based; conditions: SRB, 48 hours exposure
Summary of the method: as §1

HMEC1 = assay: Inhibition of cells growth by colorimetric assay (SRB), HMEC1; format: cell-based; conditions: SRB, 48 hours exposure
Summary of the method: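 Using sulforhodamine B, cell growth and viability are quantified after a 48 h drug exposure of cells maintained in RPMI 1640/10% FBS at 37 °C, 5% CO2. Concentrations span 10 to 10^−8 μg/ml; optical density is read at 490 nm.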

From the text for Heart: (§2) Toxicity was asssessed by the methods reported in Toxicology in Vitro, 15 (2001) 571-577, J. Luber Narod et al.: “Evaluation of the use of in vitro methodolodies as tools for screening new compounds for potential in vivo toxicity”.
From the text for Kidney: as §2
From the text for Liver: as §2
From the text for Myelo: as §2
From the text for Skeletal: as §2

`COC1=C(C)C(=O)C2=C(C1=O)[C@@H]1C3[C@@H]4SC[C@]5(NCCc6cc(O)c(OC)cc65)C(=O)OC[C@@H](c5c6c(c(C)c(OC(C)=O)c54)OCO6)N3[C@@H](O)[C@H](C2)N1C` (some centres unmarked) [Compound 101] was tested, and the GI50 (K-562; Homo sapiens, K562, 48 h, K-562, read-out: K-562 GI50) was 0.25 nM, the LC50 (50% cell killing) (K-562; Homo sapiens, K562, 48 h, read-out: K-562 LC50, K-562) was 19.2 nM and the “K-562 TGI” value (K-562; K-562) was 6.20E-10. The “A-549 TGI” value (A-549; A-549) was 6.52E-09, the GI50 (A-549; Homo sapiens, A549, 48 h, A-549, read-out: A-549 GI50) was 3.69 nM and the LC50 (concentration for 50% cell killing) (A-549; Homo sapiens, A549, 48 h, read-out: A-549 LC50, A-549) was 11.5 nM. For the same compound, the GI50 (SK-MEL-28; Homo sapiens, SK-MEL-28, 48 h, MEL-28, read-out: MEL-28 GI50) was 3.35 nM, the CC50 (SK-MEL-28; Homo sapiens, SK-MEL-28, 48 h, read-out: MEL-28 LC50, MEL-28) was 26 nM and the “MEL-28 TGI” value (SK-MEL-28; MEL-28) was 7.02E-09. The “HT-29 TGI” value (HT-29; HT-29) was 1.03E-08, the GI50 (HT-29; Homo sapiens, HT-29, 48 h, HT-29, read-out: HT-29 GI50) was 3.57 nM and the LC50 (concentration for 50% cell killing) (HT-29; Homo sapiens, HT-29, 48 h, read-out: HT-29 LC50, HT-29) was 12900 nM. For the same compound, the GI50 (LoVo; Homo sapiens, LoVo, 48 h, LOVO, read-out: LOVO GI50) was 13.4 nM, the LC50 (concentration for 50% cell killing) (LoVo; Homo sapiens, LoVo, 48 h, read-out: LOVO LC50, LOVO) was 219 nM and the “LOVO TGI” value (LoVo; LOVO) was 4.68E-08. For the same compound, the GI50 (LoVo-Dox; Homo sapiens, 48 h, LOVO-DOX, read-out: LOVO-DOX GI50) was 251 nM, the CC50 (LoVo-Dox; Homo sapiens, 48 h, read-out: LOVO-DOX LC50, LOVO-DOX) was 12900 nM and the “LOVO-DOX TGI” value (LoVo-Dox; LOVO-DOX) was 9.29E-07. The “DU-145 TGI” value (DU-145; DU-145) was 7.46E-09, the GI50 (DU-145; Homo sapiens, DU-145, 48 h, DU-145, read-out: DU-145 GI50) was 3.74 nM and the CC50 (DU-145; Homo sapiens, DU-145, 48 h, read-out: DU-145 LC50, DU-145) was 17.9 nM. For the same compound, the GI50 (LNCaP; Homo sapiens, LNCaP, 48 h, read-out: LNCAP GI50, LNCAP) was 2.5 nM, the CC50 (LNCaP; Homo sapiens, LNCaP, 48 h, read-out: LNCAP LC50, LNCAP) was 7.71 nM and the “LNCAP TGI” value (LNCaP; LNCAP) was 4.40E-09. The GI50 (SK-BR-3; Homo sapiens, SK-BR-3, 48 h, SK-BR3, read-out: SK-BR3 GI50) was 2.63 nM, the CC50 (SK-BR-3; Homo sapiens, SK-BR-3, 48 h, read-out: SK-BR3 LC50, SK-BR3) was 46.8 nM and the “SK-BR3 TGI” value (SK-BR-3; SK-BR3) was 6.44E-09. For the same compound, the GI50 (IGROV-1; Homo sapiens, IGROV-1, 48 h, IGROV, read-out: IGROV GI50) was 2.5 nM, the CC50 (IGROV-1; Homo sapiens, IGROV-1, 48 h, read-out: IGROV LC50, IGROV) was 10.7 nM and the “IGROV TGI” value (IGROV-1; IGROV) was 5.17E-09. For the same compound, the GI50 (IGROV-ET; Homo sapiens, 48 h, IGROV-ET, read-out: IGROV-ET GI50) was 30.5 nM, the CC50 (IGROV-ET; Homo sapiens, 48 h, read-out: IGROV-ET LC50, IGROV-ET) was 246 nM and the “IGROV-ET TGI” value (IGROV-ET; IGROV-ET) was 6.88E-08. The GI50 (SK-OV-3; Homo sapiens, SK-OV-3, 48 h, SK-OV3, read-out: SK-OV3 GI50) was 4.49 nM, the LC50 (SK-OV-3; Homo sapiens, SK-OV-3, 48 h, read-out: SK-OV3 LC50, SK-OV3) was 12900 nM and the “SK-OV3 TGI” value (SK-OV-3; SK-OV3) was 9.77E-09. The GI50 (PANC-1; Homo sapiens, PANC-1, 48 h, PANC-1, read-out: PANC-1 GI50) was 5.66 nM, the LC50 (concentration for 50% net cell kill) (PANC-1; Homo sapiens, PANC-1, 48 h, read-out: PANC-1 LC50, PANC-1) was 1340 nM and the “PANC-1 TGI” value (PANC-1; PANC-1) was 2.27E-08. The “HMEC-1 TGI” value (HMEC1; HMEC-1) was 1.17E-08, the GI50 (HMEC1; Homo sapiens, HMEC-1, 48 h, HMEC-1, read-out: HMEC-1 GI50) was 3.05 nM and the LC50 (HMEC1; Homo sapiens, HMEC-1, 48 h, read-out: HMEC-1 LC50, HMEC-1) was 12900 nM. The “Toxicity Data Liver” value (Liver) was 5.40E-08, the “Toxicity Data Heart” value (Heart) was 7.67E-08 and the “Toxicity Data Myelo” value (Myelo) was 1.96E-08. The “Toxicity Data Skeletal” value (Skeletal) was 3.40E-09 and the “Toxicity Data Kidney” value (Kidney) was 3.17E-08.
